Where “and” joins values, the source holds several entries; their conditions need not be identical. Equal entries are not always repeated. Numbers after ± are expanded uncertainties.
Details: 323.16 K, Liquid, Vibrating tube method

Measured: mass density

CCCCCC(=O)OCC(COC(=O)CCCCC)(COC(=O)CCCCC)COC(=O)CCCCC [pentaerythritol tetrahexanoate]
984 ± 1.2 kg/m3: 16673 kPa | 16730 kPa | 16755 kPa | 16784 kPa | 16815 kPa | 16841 kPa
986.4 ± 1.2 kg/m3: 20449 kPa | 20477 kPa | 20506 kPa | 20535 kPa | 20587 kPa | 20674 kPa | 20698 kPa | 20727 kPa | 20756 kPa
986 ± 1.2 kg/m3: 19746 kPa | 19776 kPa | 19830 kPa | 19861 kPa | 19952 kPa | 19978 kPa | 20009 kPa
983.8 ± 1.2 kg/m3: 16482 kPa | 16510 kPa | 16538 kPa | 16590 kPa
986.7 ± 1.2 kg/m3: 20925 kPa | 21013 kPa | 21035 kPa | 21061 kPa | 21087 kPa | 21113 kPa | 21139 kPa
984.6 ± 1.2 kg/m3: 17594 kPa | 17623 kPa | 17706 kPa | 17736 kPa | 17826 kPa
984.7 ± 1.2 kg/m3: 17652 kPa | 17766 kPa | 17796 kPa | 17852 kPa
987.4 ± 1.2 kg/m3: 21954 kPa | 22053 kPa | 22079 kPa | 22105 kPa | 22182 kPa | 22231 kPa
988.8 ± 1.2 kg/m3: 24281 kPa | 24329 kPa | 24382 kPa | 24458 kPa | 24562 kPa
988.3 ± 1.2 kg/m3: 23447 kPa | 23473 kPa | 23522 kPa | 23591 kPa | 23615 kPa | 23661 kPa | 23686 kPa | 23761 kPa | 23782 kPa
985.3 ± 1.2 kg/m3: 18789 kPa
985.8 ± 1.2 kg/m3: 19380 kPa | 19545 kPa | 19718 kPa
985.2 ± 1.2 kg/m3: 18594 kPa | 18624 kPa | 18649 kPa | 18709 kPa | 18737 kPa | 18761 kPa | 18818 kPa | 18846 kPa
986.9 ± 1.2 kg/m3: 21236 kPa | 21262 kPa | 21368 kPa | 21391 kPa | 21467 kPa | 21522 kPa
983.9 ± 1.2 kg/m3: 16562 kPa | 16620 kPa | 16644 kPa
987.3 ± 1.2 kg/m3: 21880 kPa | 22031 kPa | 22131 kPa | 22154 kPa
988.7 ± 1.2 kg/m3: 24202 kPa | 24303 kPa | 24355 kPa | 24410 kPa
984.8 ± 1.2 kg/m3: 17913 kPa | 17940 kPa | 17970 kPa | 18001 kPa | 18032 kPa | 18088 kPa | 18119 kPa | 18312 kPa
988.6 ± 1.2 kg/m3: 23981 kPa | 24006 kPa | 24128 kPa | 24154 kPa | 24180 kPa | 24228 kPa | 24254 kPa | 24431 kPa
987.9 ± 1.2 kg/m3: 22591 kPa | 22910 kPa | 22936 kPa | 22983 kPa | 23035 kPa | 23083 kPa
986.8 ± 1.2 kg/m3: 21161 kPa | 21187 kPa | 21214 kPa | 21316 kPa | 21342 kPa
984.1 ± 1.2 kg/m3: 16702 kPa | 16870 kPa | 16900 kPa | 17011 kPa | 17072 kPa
983.7 ± 1.2 kg/m3: 16340 kPa | 16370 kPa | 16396 kPa | 16427 kPa | 16452 kPa
984.4 ± 1.2 kg/m3: 17216 kPa | 17278 kPa | 17303 kPa | 17365 kPa | 17396 kPa | 17452 kPa | 17481 kPa | 17510 kPa
988.5 ± 1.2 kg/m3: 23858 kPa | 23930 kPa | 24028 kPa | 24053 kPa | 24079 kPa | 24103 kPa
984.9 ± 1.2 kg/m3: 17882 kPa | 18058 kPa | 18145 kPa | 18174 kPa | 18231 kPa | 18260 kPa
987.1 ± 1.2 kg/m3: 21550 kPa | 21572 kPa | 21599 kPa | 21681 kPa | 21708 kPa | 21730 kPa
988.1 ± 1.2 kg/m3: 23110 kPa | 23136 kPa | 23189 kPa | 23264 kPa | 23370 kPa
988.9 ± 1.2 kg/m3: 24480 kPa | 24507 kPa
983.6 ± 1.2 kg/m3: 16347 kPa
985.6 ± 1.2 kg/m3: 19100 kPa | 19129 kPa | 19486 kPa
983.7 ± 1.2 kg/m3 and 983.8 ± 1.2 kg/m3: 16341 kPa
989 ± 1.2 kg/m3: 24535 kPa | 24589 kPa | 24612 kPa
986.3 ± 1.2 kg/m3: 20282 kPa | 20558 kPa | 20645 kPa
986.6 ± 1.2 kg/m3: 20811 kPa | 20955 kPa
988 ± 1.2 kg/m3: 22957 kPa | 23009 kPa | 23061 kPa | 23162 kPa | 23215 kPa | 23238 kPa | 23292 kPa
986.5 ± 1.2 kg/m3: 20616 kPa | 20787 kPa | 20841 kPa | 20871 kPa | 20984 kPa
984.3 ± 1.2 kg/m3: 17159 kPa | 17192 kPa | 17248 kPa | 17334 kPa | 17427 kPa
985.7 ± 1.2 kg/m3: 19434 kPa | 19458 kPa | 19516 kPa | 19574 kPa
987.7 ± 1.2 kg/m3: 22616 kPa | 22641 kPa | 22739 kPa | 22760 kPa | 22786 kPa
985.4 ± 1.2 kg/m3: 18876 kPa | 18900 kPa | 18928 kPa | 18958 kPa | 19042 kPa | 19071 kPa
984.2 ± 1.2 kg/m3: 16925 kPa | 16955 kPa | 16986 kPa | 17041 kPa | 17102 kPa | 17128 kPa
985.9 ± 1.2 kg/m3: 19599 kPa | 19628 kPa | 19658 kPa | 19688 kPa | 19801 kPa | 19922 kPa
988.4 ± 1.2 kg/m3: 23641 kPa | 23710 kPa | 23736 kPa | 23807 kPa | 23832 kPa | 23879 kPa | 23904 kPa | 23956 kPa
986.2 ± 1.2 kg/m3: 20098 kPa | 20162 kPa | 20219 kPa | 20339 kPa | 20396 kPa
983.8 ± 1.2 kg/m3 and 983.7 ± 1.2 kg/m3: 16338 kPa | 16342 kPa
988.2 ± 1.2 kg/m3: 23319 kPa | 23346 kPa | 23397 kPa | 23424 kPa | 23498 kPa | 23542 kPa | 23566 kPa
986.1 ± 1.2 kg/m3: 19891 kPa | 20040 kPa | 20067 kPa | 20130 kPa | 20188 kPa | 20251 kPa | 20314 kPa
984.5 ± 1.2 kg/m3: 17540 kPa | 17565 kPa | 17682 kPa
987 ± 1.2 kg/m3: 21289 kPa | 21418 kPa | 21445 kPa | 21494 kPa | 21626 kPa | 21654 kPa
987.5 ± 1.2 kg/m3: 22208 kPa
985.5 ± 1.2 kg/m3: 18987 kPa | 19017 kPa | 19405 kPa
987.6 ± 1.2 kg/m3: 22541 kPa | 22566 kPa
987.2 ± 1.2 kg/m3: 21755 kPa | 21780 kPa | 21806 kPa | 21832 kPa | 21854 kPa | 21902 kPa | 21928 kPa | 21980 kPa | 22005 kPa
985.1 ± 1.2 kg/m3: 18452 kPa | 18481 kPa | 18510 kPa | 18565 kPa | 18679 kPa
985 ± 1.2 kg/m3: 18203 kPa | 18284 kPa | 18341 kPa | 18370 kPa | 18394 kPa | 18423 kPa | 18540 kPa
987.8 ± 1.2 kg/m3: 22688 kPa | 22713 kPa | 22812 kPa | 22838 kPa | 22858 kPa | 22884 kPa

From the NIST ThermoML archive (doi:10.1021/je060271a)
